Source: patent US8410126B2, “Pyrimidine inhibitors of PKTK2” (Boehringer Ingelheim International GmbH, priority 2009, dated 2013)

Target: T1, PTK2 (Homo sapiens, UniProt Q05397)
T1 construct: purchased Invitrogen PV3832
Assay: PTK2 enzyme test Assay 2 (DELFIA, poly-Glu-Tyr substrate, PT66 antibody)
Type: biochemical
Conditions: Assay 2 (values marked *); 1 h pre-incubation, 50 μM ATP mix, final DMSO 0.5%
Text: This test uses active PTK2 enzyme (Invitrogen Code PV3832) and poly-Glu-Tyr (4:1, Sigma P-0275) as the kinase substrate. The kinase activity is detected by means of the phosphorylation of the substrate in a DELFIA™ assay. The phosphorylated substrate is detected with the europium-labelled phosphotyrosine antibody PT66 (Perkin Elmer, No.: AD0040).
In order to determine concentration-activity curves with PTK2-inhibitors the compounds are serially diluted first of all in 100% DMSO and then in kinase dilution buffer (20 mM TRIS/HCl pH 7.5, 0.1 mM EDTA, 0.1 mM EGTA, 0.286 mM sodium orthovanadate, 10% glycerol with the addition of freshly prepared BSA (fraction V, 1 mg/mL) and DTT (1 mM)) and 10 μL of each dilution are dispensed per well in a 96-well microtitre plate (clear U-shaped base plate, Greiner No. 650101) (the inhibitors are tested in duplicates) and mixed with 10 μL/well of PTK2 kinase (0.01 μg/well). PTK2 kinase is diluted accordingly beforehand with kinase dilution buffer. The diluted PTK2 inhibitor and the PTK2 kinase are pre-incubated for 1 h at RT and shaken at 500 revolutions per min. Then 10 μL/well poly-Glu-Tyr substrate (25 μg/well poly-Glu-Tyr, 0.05 μg/well biotinylated poly-Glu-Tyr dissolved in 250 mM TRIS/HCl pH 7.5, 9 mM DTT) are added. The reaction is started by the addition of 20 μL of ATP Mix (30 mM TRIS/HCl pH 7.5, 0.02% Brij, 0.2 mM sodium orthovanadate, 10 mM magnesium acetate, 0.1 mM EGTA, 1× phosphatase inhibitor cocktail 1 (Sigma, No.: P2850), 50 μM ATP (Sigma, No.: A3377; 15 mM stock solution))—the final concentration of DMSO is 0.5%. After 1 h kinase reaction (the plates are shaken at 500 rpm), the reaction is stopped by the addition of 12 μL/well of 100 mM EDTA, pH 8, and shaken for a further 5 min at RT (500 U/min). 55 μL of the reaction mixture are transferred into a streptavidin plate (Strepta Well High Bind (transparent, 96-well) made by Roche, No.: 11989685001) and incubated for 1 h at RT (shaking at 500 rpm). Then the microtitre plate is washed five times with 200 μL/well D-PBS (Invitrogen, No. 14190). 100 μL of a solution containing DELFIA Eu-N1 Anti-Phosphotyrosine PT66 antibody (Perkin Elmer, No.: AD0040, diluted 1:9000 in DELFIA test buffer (Perkin Elmer, No.: 1244-111)) is then added and it is incubated for 1 h at RT (shaking at 500 rpm). Then the plate is washed five times with 200 μL/well DELFIA washing buffer (Perkin Elmer, No.: 1244-114), 200 μL/well strengthening solution (Perkin Elmer, No.: 1244-105) is added and the whole is incubated for 10 min at RT (shaking at 300 rpm).
The time-delayed europium fluorescence is then measured in a microtitre plate reader (VICTOR^3, Perkin Elmer). The positive control consists of wells that contain solvent (0.5% DMSO in test buffer) and display uninhibited kinase activity. Wells that contain test buffer instead of enzyme act as a control for the background kinase activity.
The IC50 values are determined from concentration-activity analyses by iterative calculation using a sigmoid curve analysis algorithm (FIFTY, based on GraphPAD Prism Version 3.03) with a variable Hill coefficient.

T1 sequence (Q05397 whole entry): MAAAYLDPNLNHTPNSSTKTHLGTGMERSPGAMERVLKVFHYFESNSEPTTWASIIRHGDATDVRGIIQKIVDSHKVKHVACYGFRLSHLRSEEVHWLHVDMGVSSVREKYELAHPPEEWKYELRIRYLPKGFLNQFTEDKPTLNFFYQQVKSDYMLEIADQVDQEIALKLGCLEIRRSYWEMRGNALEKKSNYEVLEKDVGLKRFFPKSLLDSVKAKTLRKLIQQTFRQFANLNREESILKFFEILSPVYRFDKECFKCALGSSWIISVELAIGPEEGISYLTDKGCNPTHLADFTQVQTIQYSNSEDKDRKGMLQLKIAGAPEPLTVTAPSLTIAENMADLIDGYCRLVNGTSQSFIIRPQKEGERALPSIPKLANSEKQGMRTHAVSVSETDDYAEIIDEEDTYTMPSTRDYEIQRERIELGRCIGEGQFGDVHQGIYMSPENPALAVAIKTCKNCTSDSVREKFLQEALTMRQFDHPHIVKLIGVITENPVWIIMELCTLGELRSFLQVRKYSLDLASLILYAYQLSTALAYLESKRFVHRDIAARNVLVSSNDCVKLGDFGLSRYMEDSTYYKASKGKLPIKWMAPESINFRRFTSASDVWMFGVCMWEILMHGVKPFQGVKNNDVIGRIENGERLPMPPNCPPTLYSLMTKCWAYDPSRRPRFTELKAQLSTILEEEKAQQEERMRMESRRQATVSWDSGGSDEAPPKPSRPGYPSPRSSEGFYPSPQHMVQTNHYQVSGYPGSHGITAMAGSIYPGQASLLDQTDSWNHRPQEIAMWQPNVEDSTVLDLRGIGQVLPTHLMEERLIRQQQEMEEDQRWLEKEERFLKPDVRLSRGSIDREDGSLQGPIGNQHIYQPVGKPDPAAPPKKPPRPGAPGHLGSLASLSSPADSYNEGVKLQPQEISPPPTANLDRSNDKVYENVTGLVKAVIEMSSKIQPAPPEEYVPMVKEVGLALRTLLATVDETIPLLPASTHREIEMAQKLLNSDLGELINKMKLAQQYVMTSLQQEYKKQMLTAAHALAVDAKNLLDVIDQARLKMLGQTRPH

SMILES	IC50 [nM]
COc1cc(N2CCN(C(C)(C)C)CC2)c(C)cc1Nc1ncc(C(F)(F)F)c(N[C@@H]2Cc3ccccc3[C@H]2N(C)S(C)(=O)=O)n1 [Example I-78, N-((1R,2R)-2-{2-[4-(4-tert-butyl-piperazin-1-yl)-2-methoxy-5-methyl-phenylamino]-5-trifluoromethyl-pyrimidin-4-ylamino}-indan-1-yl)-N-methyl-methanesulphonamide]	0.83
COc1cc(N2CCNCC2)c(C)cc1Nc1ncc(C(F)(F)F)c(N[C@@H]2Cc3ccccc3[C@H]2N(C)S(C)(=O)=O)n1 [Example I-74, N-{(1R,2R)-2-[2-(2-methoxy-5-methyl-4-piperazin-1-yl-phenylamino)-5-trifluoromethyl-pyrimidin-4-ylamino]-indan-1-yl}-N-methyl-methanesulphonamide]	0.66
COc1cc(N2CCN(C)CC2=O)ccc1Nc1ncc(C(F)(F)F)c(N[C@@H]2Cc3ccccc3[C@H]2N(C)S(C)(=O)=O)n1 [Example I-86]	0.31
COc1cc(N2CCNCC2)c(Cl)cc1Nc1ncc(C(F)(F)F)c(N[C@@H]2Cc3ccccc3[C@H]2N(C)S(C)(=O)=O)n1 [Example I-76, N-{(1R,2R)-2-[2-(5-chloro-2-methoxy-4-piperazin-1-yl-phenylamino)-5-trifluoromethyl-pyrimidin-4-ylamino]-indan-1-yl}-N-methyl-methanesulphonamide]	0.76
CN1CCC(NC(=O)c2cccc(Nc3ncc(C(F)(F)F)c(N[C@@H]4Cc5ccccc5[C@H]4N(C)S(C)(=O)=O)n3)c2)CC1 [Example I-88]	0.26
COc1cc(C)c(C(=O)NC2CCOCC2)cc1Nc1ncc(C(F)(F)F)c(N[C@@H]2Cc3ccccc3[C@H]2N(C)S(C)(=O)=O)n1 [Example I-82]	0.36
COc1cc(N2CCN(C)CC2)c(C)cc1Nc1ncc(C(F)(F)F)c(N[C@@H]2Cc3ccccc3[C@H]2N(C)S(C)(=O)=O)n1 [Example I-77]	0.56
COc1cc(N2CCN(C(C)(C)C)CC2)ccc1Nc1ncc(C(F)(F)F)c(N[C@@H]2Cc3ccccc3[C@H]2N(C)S(C)(=O)=O)n1 [Example I-66, N-((1R,2R)-2-{2-[4-(4-tert-butyl-piperazin-1-yl)-2-methoxy-phenylamino]-5-trifluoromethyl-pyrimidin-4-ylamino}-indan-1-yl)-N-methyl-methanesulphonamide]	0.6
COc1ccc(C(=O)N(C)CCN2CCCC2)cc1Nc1ncc(C(F)(F)F)c(N[C@@H]2Cc3ccccc3[C@H]2N(C)S(C)(=O)=O)n1 [Example I-85]	0.44
CCc1cc(Nc2ncc(C(F)(F)F)c(N[C@@H]3Cc4ccccc4[C@H]3N(C)S(C)(=O)=O)n2)c(OC)cc1N1CCN(C(C)(C)C)CC1 [Example I-89]	0.68
COc1cc(N2CCNCC2=O)ccc1Nc1ncc(C(F)(F)F)c(N[C@@H]2Cc3ccccc3[C@H]2N(C)S(C)(=O)=O)n1 [Example I-87]	0.48
COc1cc(NC(=O)N(C)C)ccc1Nc1ncc(C(F)(F)F)c(N[C@@H]2Cc3ccccc3[C@H]2N(C)S(C)(=O)=O)n1 [Example I-79]	0.23
COc1ccc(C(=O)N(C)C2CCN(C)CC2)cc1Nc1ncc(C(F)(F)F)c(N[C@@H]2Cc3ccccc3[C@H]2N(C)S(C)(=O)=O)n1 [Example I-81]	0.43
COc1cc(N2CCN(C(C)(C)C)CC2)ccc1Nc1ncc(C(F)(F)F)c(N[C@@H]2Cc3ccccc3[C@H]2NS(C)(=O)=O)n1 [Example I-91]	0.75
COc1cc(F)c(C(=O)NC2CCN(C)CC2)cc1Nc1ncc(Cl)c(N[C@@H]2Cc3ccccc3[C@H]2N(C)S(C)(=O)=O)n1 [Example I-75, 5-{5-chloro-4-[(1R,2R)-1-(methanesulphonyl-methyl-amino)-indan-2-ylamino]-pyrimidin-2-ylamino}-2-fluoro-4-methoxy-N-(1-methyl-piperidin-4-yl)-benzamide]	0.3
